Patent publication US9006487B2, “Amine-containing lipids and uses thereof” (Massachusetts Institute of Technology, priority 2005, dated 2015)

System: cos-7 cells
Experiment: DNA transfection: luciferase expression relative to Lipofectamine 2000
Type: cell-based
Conditions: 300 ng Luciferase DNA per well, luciferase assay after 48 hours
Method in brief: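 cos-7 cells were transfected with 300 ng/well luciferase DNA complexed with lipid at ratios from 2.5 to 25 w/w. Bright-Glo luminescence was read after 48 hours and converted to ng luciferase by standard curve. Data are percent of the Lipofectamine 2000 control (2.5 w/w).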

SMILES	Luciferase expression as a percentage of that achieved using Lipofectamine 2000 (lipid/DNA 2.5 w/w)	Luciferase expression as a percentage of that achieved using Lipofectamine 2000 (lipid/DNA 5 w/w)	Luciferase expression as a percentage of that achieved using Lipofectamine 2000 (lipid/DNA 10 w/w)	Luciferase expression as a percentage of that achieved using Lipofectamine 2000 (lipid/DNA 15 w/w)	Luciferase expression as a percentage of that achieved using Lipofectamine 2000 (lipid/DNA 20 w/w)	Luciferase expression as a percentage of that achieved using Lipofectamine 2000 (lipid/DNA 25 w/w)
CCCCCCCCCCCCCCCOC(=O)CCN(CCCN(CC)CC)CCC(=O)OCCCCCCCCCCCCCCC [LG81]	0.7%	0.8%	1.2%	4.1%	14.8%	19.9%
CCCCCCCCCCCCCCCOC(=O)CCN(CCC(=O)OCCCCCCCCCCCCCCC)CCc1ccc(OC)c(OC)c1 [LG17]	0.4%	0.3%	0.1%	0.0%	0.3%	0.3%
CCCCCCCCCCCCCCOC(=O)CCN(CCC(=O)OCCCCCCCCCCCCCC)CC1COC(C)(C)O1 (stereo not drawn) [LF7]	0.1%	0.1%	0.0%	0.0%	0.1%	0.1%
CCCCCCCCCCCCCCOC(=O)CCN(CCC(=O)OCCCCCCCCCCCCCC)C(C)CN(C)C (stereo not drawn) [LF79]	0.1%	0.3%	0.3%	0.3%	0.3%	0.3%
CCCCCCCCCCCCCCCOC(=O)CCN(CCC(=O)OCCCCCCCCCCCCCCC)C[C@H](C)O [LG22]	0.2%	0.3%	0.4%	0.5%	0.4%	0.7%
CCCCCCCCCCCCCCOC(=O)CCN(CCC(=O)OCCCCCCCCCCCCCC)CC(O)CO (stereo not drawn) [LF24]	0.1%	0.1%	0.1%	0.2%	0.3%	0.3%
CCCCCCCCCCOC(=O)CCN(CCC(=O)OCCCCCCCCCC)C(CO)CO [LB25]	0.8%	2.4%	2.6%	3.3%	2.3%	1.8%
CCCCCCCCCCCCCCCOC(=O)CCN(CCC(=O)OCCCCCCCCCCCCCCC)CC(OC)OC [LG13]	0.0%	0.0%	0.0%	0.0%	0.0%	0.0%
CCCCCCCCCCCCCCCCCCOC(=O)CCN(CCOC)CCC(=O)OCCCCCCCCCCCCCCCCCC [LH10]	0.0%	0.0%	0.0%	0.0%	0.0%	0.0%
CCCCCCCCCCCCCCCOC(=O)CCN(CCCO)CCC(=O)OCCCCCCCCCCCCCCC [LG20]	2.0%	2.5%	0.4%	0.2%	0.1%	0.1%
CCCCCCCCCCCCCCOC(=O)CCN(CCCN(CC)CC)CCC(=O)OCCCCCCCCCCCCCC [LF81]	0.5%	1.6%	1.5%	4.9%	4.6%	4.0%
CCCCCCCCCCCCCOC(=O)CCN(CC)CCCN(CC)CCC(=O)OCCCCCCCCCCCCC [LE64]	0.1%	0.1%	0.1%	0.0%	0.1%	0.1%
CCCCCCCCCCOC(=O)CCN(CCC(=O)OCCCCCCCCCC)CC(O)CO (stereo not drawn) [LB24]	0.1%	0.2%	0.4%	0.1%	0.1%	0.1%
CCCCCCCCCCCCCCCCCCOC(=O)CCN(CCC(=O)OCCCCCCCCCCCCCCCCCC)CCC1OCCO1 [LH6]	0.0%	0.0%	0.0%	0.0%	0.0%	0.0%
CCCCCCCCCCCCOC(=O)CCN(CCC(=O)OCCCCCCCCCCCC)CCN1CCCCC1 [LD82]	0.1%	0.1%	0.2%	0.3%	0.4%	0.7%
CCCCCCCCCCCCCCCOC(=O)CCN(CCCN(CCO)CCO)CCC(=O)OCCCCCCCCCCCCCCC [LG87]	14.5%	7.5%	9.2%	10.4%	5.9%	4.7%
CCCCCCCCCCOC(=O)CCN(CCC(=O)OCCCCCCCCCC)C[C@@H](C)O [LB21]	0.7%	0.8%	0.7%	0.7%	0.7%	0.8%
CCCCCCCCCCOC(=O)CC[N+](C)(CCCOC)CCC(=O)OCCCCCCCCCC.[I-] [QB1]	0.4%	0.3%	0.4%	0.3%	0.4%	0.4%
